≈ marks a conversion by molar mass, not a printed value.
How the values were obtained:
[1] = Kinetic solubility in PBS buffer; assay type: physicochemical; conditions: aqueous buffer, kinetic from dmso stock; PBS buffer pH 7.4
Procedure: Test compounds (5 μL; 10 mM DMSO stock) were added to 245 μL of PBS buffer pH 7.4 (Dulbecco A) in a Millipore MultiScreen® Solubility Filter plate and mixed at 300 rpm at room temperature on a plate shaker for 90 minutes. Meanwhile 5-points calibration curves for each compound were established in a mixture of acetonitrile/PBS buffer (top concentration 200 μM). After filtration and matrix match, the calibration and assay plates were analysed on a BMG Labtech CLARIOstar plate reader (240-400 nm). Final concentration of the test compound in the filtrate was calculated using the slope of the calibration curve.

[2] = CLint/CLhep estimates using liver microsomes (dog); assay type: in vitro ADME
Procedure: (§1) Test compounds (final concentration=1 μM; final DMSO concentration=0.1%) were incubated in 0.1M phosphate buffer pH 7.4 with liver microsomes (human, mouse, rat or dog; 0.5 mg of protein/mL) at 37° C. Reactions were started by addition of NADPH in 0.1M phosphate buffer pH 7.4 (final concentration 1 mM). 40 μL aliquots were removed at 3, 6, 10, 15, 20, 30, 40 and 50 minutes. Reactions were quenched in 80 μL of ice-cold methanol. Samples were subsequently frozen overnight then centrifuged at 3500 rpm for 20 minutes at 4° C. The supernatants were removed and transferred into analytical plates and analysed by LC/MS/MS.
(§2) All samples were analysed on a Waters Acquity I-Class coupled to a Waters Xevo TQD mass spectrometer. A Waters BEH C18 2.1×50 mm 1.7 μm column was used and mobile phases were water and methanol containing 0.1% formic acid as modifier. Analysis was by multiple reaction monitoring and conditions were optimised for each test compound.
(§3) From a plot of In peak area against time, the gradient of the line is determined.
(§4) Subsequently, half-life and intrinsic clearance are calculated using the equations below: […]
(§5) The CLhep was calculated as follows: […]
(§6) Where CLint (mL/min/kg) is the intrinsic clearance scaled to a whole liver and Qh is hepatic liver blood flow.

[3] = CLint/CLhep estimates using liver microsomes (rat); assay type: in vitro ADME
Procedure: as §1, §2, §3, §4, §5, §6

USP7 [4] = molecular target: T1, USP7 (Homo sapiens (Human), UniProt Q93009); assay: Target engagement assay-HTRF, competition with HA-Ub-VPS probe in HEK293 cells stably expressing Flag-tagged USP7; assay type: cell-based; conditions: HEK293 stable clone M6C5, 2 h treatment; read-out: Cellular target engagement: HEK293 Stable clone M6C5 USP7 IC50
Procedure: HEK293 cells stably expressing Flag-tagged USP7 were treated with vehicle (DMSO) or compound (using 50 μM starting concentration and 11 dp using 1:3 serial dilution) for 2 h and subsequently lysed on ice and homogenised. Cell lysate and HA-Ub-VPS probe was then added to a white flat bottomed 384 well plate (Greiner) to a total volume of 10 μL and incubated for 40 min. 10 μL of D2 and Tb detection antibodies were subsequently added to give a final assay volume of 20 μL. Following incubation, HTRF were measured using a Pherastar FSX (BMG Labtech) exciting at 337 nm and measuring the emission at 620/665 nm. The HTRF ratiometric signal was derived and subsequently normalised to the lysate only controls. Data were plotted and fitted, and the concentrations resulting in 50% inhibition (IC50) were calculated using the non-linear regression curve fitting model using GraphPad Prism. IC50 values for the inhibitors of the invention are compiled in Table 1 above and represent the average of at least duplicate experiments.

[5] = CLint/CLhep estimates using liver microsomes (human); assay type: in vitro ADME
Procedure: as §1, §2, §3, §4, §5, §6

USP7 [6] = molecular target: T1, USP7; assay: USP7 fluorescence polarisation (FP) assay with ubiquitin-Lys-TAMRA substrate; assay type: biochemical
[7] = CLint/CLhep estimates using liver microsomes (mouse); assay type: in vitro ADME
Procedure: as §1, §2, §3, §4, §5, §6

[8] = Pharmacokinetic (PK) parameters in mouse; assay type: in vivo, BALB/c mouse; conditions: for AUC(0-inf) / half-life / Vd: blood; for Vd: read-out: Vss
[9] = average of at least duplicate experiments, read-out: Biochemical: USP7 IC50
[10] = biochemical inhibition, read-out: USP7 IC50 activity (Table 3a, classes)
[11] = biochemical inhibition, unit not given in Table 3b (Table 1 and key of Table 3a use μM), read-out: USP7 IC50 activity (Table 3b)

T1 sequence (Q93009 whole entry): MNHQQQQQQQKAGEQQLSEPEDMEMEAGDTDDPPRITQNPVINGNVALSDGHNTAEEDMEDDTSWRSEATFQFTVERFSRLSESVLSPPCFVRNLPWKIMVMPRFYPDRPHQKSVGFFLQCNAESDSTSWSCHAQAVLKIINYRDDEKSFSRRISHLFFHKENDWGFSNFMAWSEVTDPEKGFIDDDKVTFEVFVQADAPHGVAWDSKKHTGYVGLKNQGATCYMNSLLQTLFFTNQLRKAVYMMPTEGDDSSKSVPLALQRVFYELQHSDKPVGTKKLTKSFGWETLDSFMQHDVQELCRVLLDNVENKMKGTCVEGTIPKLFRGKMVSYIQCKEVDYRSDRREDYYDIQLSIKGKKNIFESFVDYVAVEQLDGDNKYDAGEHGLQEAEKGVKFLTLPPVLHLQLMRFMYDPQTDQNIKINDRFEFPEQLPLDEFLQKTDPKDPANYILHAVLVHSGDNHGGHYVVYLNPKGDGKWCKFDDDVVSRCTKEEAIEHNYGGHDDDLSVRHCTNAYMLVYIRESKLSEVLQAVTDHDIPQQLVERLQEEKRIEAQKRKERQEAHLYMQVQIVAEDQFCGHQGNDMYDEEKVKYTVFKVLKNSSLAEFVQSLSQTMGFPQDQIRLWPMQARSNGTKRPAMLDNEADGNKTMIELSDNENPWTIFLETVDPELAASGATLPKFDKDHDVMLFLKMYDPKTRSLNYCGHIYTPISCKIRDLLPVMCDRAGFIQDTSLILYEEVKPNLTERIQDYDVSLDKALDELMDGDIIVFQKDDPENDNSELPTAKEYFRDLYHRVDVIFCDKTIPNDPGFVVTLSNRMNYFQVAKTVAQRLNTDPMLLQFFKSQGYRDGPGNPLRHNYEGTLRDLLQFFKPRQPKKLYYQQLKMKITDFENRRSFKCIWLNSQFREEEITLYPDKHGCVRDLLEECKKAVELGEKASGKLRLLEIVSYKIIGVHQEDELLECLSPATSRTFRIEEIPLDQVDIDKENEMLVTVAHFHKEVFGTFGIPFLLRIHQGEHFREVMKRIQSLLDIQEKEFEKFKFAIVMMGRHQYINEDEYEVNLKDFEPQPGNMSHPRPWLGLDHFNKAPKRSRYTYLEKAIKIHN

Structure (SMILES)	solubility kinetic at 90 min [1] [µM]	Liver Microsomes: CLhep Dog [2] [mL/min/kg]	Liver Microsomes: CLhep Rat [3] [mL/min/kg]	IC50 (USP7 [4]) [nM]	Liver Microsomes: CLhep Human [5] [mL/min/kg]	IC50 (USP7 [6]; [9]) [µM]	Liver Microsomes: CLhep Mouse [7] [mL/min/kg]	CLb ([8]; BALB/c mouse IV 1 mg/kg) [mL/min/kg]	F ([8]; BALB/c mouse PO 3 mg/kg) [%]	AUC(0-inf) ([8]; BALB/c mouse IV 1 mg/kg) [ng·h/mL]	half-life ([8]; BALB/c mouse IV 1 mg/kg) [h]	Vd ([8]; BALB/c mouse IV 1 mg/kg) [L/kg]	AUC(0-inf) ([8]; BALB/c mouse PO 3 mg/kg) [ng·h/mL]	IC50 (USP7 [6]; [10]) [µM]	IC50 (USP7 [6]; [11]) [µM]
CC1(C(=O)N2CCC(O)(Cn3cnc4c(cc(Cl)n4-c4cccc(N5CCOCC5)c4)c3=O)CC2)CC1 [Comparative Example, reference compound]	151 (≈ 79.4 µg/mL)	22.3	27	> 50000	14.5	0.19	63.9								
C[C@H]1CN[C@H](c2ccc(-n3c(Cl)cc4c(=O)n(CC5(O)CCN(C(=O)c6ccc(F)cc6)CC5)cnc43)cc2)CO1 [Example 21, 6-Chloro-3-((1-(4-fluorobenzoyl)-4-hydroxypiperidin-4-yl)methyl)-7-(4-((3R,6S)-6-methylmorpholin-3-yl)phenyl)-3,7-dihydro-4H-pyrrolo[2,3-d]pyrimidin-4-one]	203 (≈ 118 µg/mL)	4.5	6.5	180	3.2	0.11	19.1	35.1	40.3	479	2.09	3.89	593	0.1 to 0.25	0.108
C[C@H]1CN[C@H](c2ccc(-n3c(Cl)cc4c(=O)n(CC5(O)CCN(C(=O)[C@]6(C)C[C@H]6C(F)(F)F)CC5)cnc43)cc2)CO1 (single isomer, unassigned) [Example 32, 6-Chloro-3-((4-hydroxy-1-((1S,2S)-1-methyl-2-(trifluoromethyl)cyclopropane-1-carbonyl)piperidin-4-yl)methyl)-7-(4-((3R,6S)-6-methylmorpholin-3-yl)phenyl)-3,7-dihydro-4H-pyrrolo[2,3-d]pyrimidin-4-one or 6-chloro-3-((4-hydroxy-1-((1R,2R)-1-methyl-2-(trifluoromethyl)cyclopropane-1-carbonyl)piperidin-4-yl)methyl)-7-(4-((3R,6S)-6-methylmorpholin-3-yl)phenyl)-3,7-dihydro-4H-pyrrolo[2,3-d]pyrimidin-4-one]	197 (≈ 120 µg/mL)	4.5	6.5	130	5.8	0.048	11.5	28.2	116	591	3.5	5.49	2100	< 0.1	0.048
O=C(C[C@H](c1ccccc1)C(F)F)N1CCC(O)(Cn2cnc3c(cc(Cl)n3-c3ccc([C@H]4COCCN4)cc3)c2=O)CC1 (single isomer, unassigned) [Example 82]				9.4		0.006								< 0.1	0.006
C[C@H]1OCCN[C@@H]1c1ccc(-n2c(Cl)cc3c(=O)n(CC4(O)CCN(C(=O)c5ccc(Cl)cc5)CC4)cnc32)cc1 [Example 8, 6-Chloro-3-((1-(4-chlorobenzoyl)-4-hydroxypiperidin-4-yl)methyl)-7-(4-((2R,3R)-2-methylmorpholin-3-yl)phenyl)-3,7-dihydro-4H-pyrrolo[2,3-d]pyrimidin-4-one]				66		0.077								< 0.1	0.077

Reference: patent US20250122223A1, “HETEROCYCLIC COMPOUNDS AS UBIQUITIN SPECIFIC PROTEASE 7 INHIBITORS” (ALMAC DISCOVERY LIMITED, priority 2022, published 2025)
